Measurements: ChEMBL document CHEMBL1201862, “PubChem BioAssay data set” (2004)
Active and inactive are the calls of the source.

Legend:
[1] = target: Lytic switch protein BZLF1 (Epstein-Barr virus (strain B95-8) (HHV-4) (Human herpesvirus 4), UniProt P03206); assay: inhibition of BZLF1 ZTA DNA binding – biochemical, fluorescence polarization, Epstein-Barr virus, 1536-well, counter-screen for EBNA-1 inhibitor project, dose response (AID 2377); parameters: species or system human gammaherpesvirus 4;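 also: fluorescence polarization of Cy5-labelled ZRE DNA probe bound by purified Zta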
Lytic switch protein BZLF1, sequence (P03206 whole entry): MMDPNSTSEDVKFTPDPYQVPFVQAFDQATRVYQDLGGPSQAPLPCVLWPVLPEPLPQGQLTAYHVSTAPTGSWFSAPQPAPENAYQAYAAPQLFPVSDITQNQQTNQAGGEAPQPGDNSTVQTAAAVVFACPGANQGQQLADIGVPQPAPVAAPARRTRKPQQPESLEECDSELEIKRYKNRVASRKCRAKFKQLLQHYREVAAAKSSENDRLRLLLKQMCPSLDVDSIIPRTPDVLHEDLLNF

[2] = target: Epstein-Barr nuclear antigen 1 (Epstein-Barr virus (strain B95-8) (HHV-4) (Human herpesvirus 4), UniProt P03211); assay: inhibition of EBV nuclear antigen 1 DNA binding – biochemical, fluorescence polarization, 1536-well, dose response (AID 2381); parameters: species or system human gammaherpesvirus 4;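 also: fluorescence polarization of a Cy5 DNA probe bound by EBNA-1 protein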
Epstein-Barr nuclear antigen 1, sequence (P03211 whole entry): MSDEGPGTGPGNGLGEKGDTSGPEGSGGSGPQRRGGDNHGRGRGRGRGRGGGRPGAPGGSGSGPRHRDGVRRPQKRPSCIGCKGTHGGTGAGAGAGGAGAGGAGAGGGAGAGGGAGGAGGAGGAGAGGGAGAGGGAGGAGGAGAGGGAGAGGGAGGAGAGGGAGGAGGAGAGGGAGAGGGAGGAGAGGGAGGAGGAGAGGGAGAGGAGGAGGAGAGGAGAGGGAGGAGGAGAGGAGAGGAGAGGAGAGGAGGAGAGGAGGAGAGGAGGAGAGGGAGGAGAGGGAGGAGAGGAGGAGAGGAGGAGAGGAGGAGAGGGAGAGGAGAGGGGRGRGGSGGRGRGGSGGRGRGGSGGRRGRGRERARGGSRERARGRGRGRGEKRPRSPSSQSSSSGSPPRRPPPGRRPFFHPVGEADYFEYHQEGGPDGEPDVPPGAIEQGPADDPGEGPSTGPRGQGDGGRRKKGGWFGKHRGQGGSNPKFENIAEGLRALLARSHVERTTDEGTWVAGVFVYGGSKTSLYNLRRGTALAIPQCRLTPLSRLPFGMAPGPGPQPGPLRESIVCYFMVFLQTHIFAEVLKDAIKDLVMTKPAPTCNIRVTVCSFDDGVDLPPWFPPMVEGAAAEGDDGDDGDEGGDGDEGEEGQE

Procathepsin L = Procathepsin L (Homo sapiens, UniProt P07711); assay: CTSL1 protease inhibition – biochemical, QFRET, 1536-well, counter-screen for M1/M17 aminopeptidase inhibitor project, dose response (AID 2214)
Procathepsin L, sequence (P07711 whole entry): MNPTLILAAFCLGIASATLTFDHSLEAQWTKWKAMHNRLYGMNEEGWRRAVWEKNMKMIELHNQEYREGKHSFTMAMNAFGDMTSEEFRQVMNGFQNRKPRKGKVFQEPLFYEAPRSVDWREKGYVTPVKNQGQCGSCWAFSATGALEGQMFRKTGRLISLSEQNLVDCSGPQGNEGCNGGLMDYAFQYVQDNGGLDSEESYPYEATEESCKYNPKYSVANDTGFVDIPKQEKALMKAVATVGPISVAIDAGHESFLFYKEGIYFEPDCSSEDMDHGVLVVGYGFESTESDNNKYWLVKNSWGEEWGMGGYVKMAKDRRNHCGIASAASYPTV

Aspartyl aminopeptidase = target: T1, Aspartyl aminopeptidase (Plasmodium falciparum 3D7, UniProt Q8I2J3); assay: Counterscreen for inhibitors of M1 and M17 aminopeptidases: QFRET-based biochemical high throughput dose response assay for inhibitors of the Plasmodium falciparum M18 Aspartyl Aminopeptidase (PFM18AAP). [Related PubChem assays: 1619 (Screening assay (M17LAP inhibitors).), 1445 (Screening assay (M1AAP inhibitors).)]
T1 sequence (Q8I2J3 whole entry): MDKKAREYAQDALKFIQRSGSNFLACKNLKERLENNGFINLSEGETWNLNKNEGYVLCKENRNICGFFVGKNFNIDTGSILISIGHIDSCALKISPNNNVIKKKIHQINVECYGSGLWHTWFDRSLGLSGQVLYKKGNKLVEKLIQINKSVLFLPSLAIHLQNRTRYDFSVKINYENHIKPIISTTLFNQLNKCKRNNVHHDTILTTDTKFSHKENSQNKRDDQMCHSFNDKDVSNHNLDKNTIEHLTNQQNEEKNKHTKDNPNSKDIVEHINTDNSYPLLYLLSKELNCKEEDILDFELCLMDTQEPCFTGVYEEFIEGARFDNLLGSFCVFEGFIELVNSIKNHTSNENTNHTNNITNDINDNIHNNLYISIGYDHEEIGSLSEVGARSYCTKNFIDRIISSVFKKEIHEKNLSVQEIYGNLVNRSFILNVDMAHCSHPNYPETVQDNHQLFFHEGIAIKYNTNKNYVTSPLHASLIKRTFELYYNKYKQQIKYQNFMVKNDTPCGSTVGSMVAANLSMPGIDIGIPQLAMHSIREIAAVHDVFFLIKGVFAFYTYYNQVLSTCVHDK

Leucine aminopeptidase = target: T2, Leucine aminopeptidase (Plasmodium falciparum 3D7, UniProt Q8IL11); assay: P. falciparum M17LAP inhibitors, primary screen, biochemical, fluorogenic H-Leu-NHMec substrate, 1536-well (AID 1619); format: functional
T2 sequence (Q8IL11 whole entry): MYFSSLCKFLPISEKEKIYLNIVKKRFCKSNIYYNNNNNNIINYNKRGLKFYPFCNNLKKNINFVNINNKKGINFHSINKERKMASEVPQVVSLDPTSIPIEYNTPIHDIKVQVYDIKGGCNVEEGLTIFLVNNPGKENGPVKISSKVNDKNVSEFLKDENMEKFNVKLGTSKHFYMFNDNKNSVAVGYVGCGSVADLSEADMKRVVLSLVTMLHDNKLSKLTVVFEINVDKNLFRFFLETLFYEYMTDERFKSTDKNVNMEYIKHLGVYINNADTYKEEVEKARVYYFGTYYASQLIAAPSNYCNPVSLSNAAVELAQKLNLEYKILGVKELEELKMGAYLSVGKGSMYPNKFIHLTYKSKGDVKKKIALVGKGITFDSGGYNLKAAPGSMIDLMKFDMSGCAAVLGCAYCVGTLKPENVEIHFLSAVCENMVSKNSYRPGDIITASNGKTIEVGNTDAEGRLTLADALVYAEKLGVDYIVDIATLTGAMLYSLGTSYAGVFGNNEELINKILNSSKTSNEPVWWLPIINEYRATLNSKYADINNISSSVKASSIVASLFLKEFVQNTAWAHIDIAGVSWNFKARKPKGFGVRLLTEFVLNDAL

Protein RecA = target: T3, Protein RecA (Mycobacterium tuberculosis, UniProt P9WHJ3); assay: Fluorescence Cell-Free Homogeneous Dose Retest to Identify Inhibitors of RecA-Intein Splicing Activity. [Related pubchem assays (depositor defined):AID2097, AID2223, AID489010, AID492950]; format: functional
T3 sequence (P9WHJ3 whole entry): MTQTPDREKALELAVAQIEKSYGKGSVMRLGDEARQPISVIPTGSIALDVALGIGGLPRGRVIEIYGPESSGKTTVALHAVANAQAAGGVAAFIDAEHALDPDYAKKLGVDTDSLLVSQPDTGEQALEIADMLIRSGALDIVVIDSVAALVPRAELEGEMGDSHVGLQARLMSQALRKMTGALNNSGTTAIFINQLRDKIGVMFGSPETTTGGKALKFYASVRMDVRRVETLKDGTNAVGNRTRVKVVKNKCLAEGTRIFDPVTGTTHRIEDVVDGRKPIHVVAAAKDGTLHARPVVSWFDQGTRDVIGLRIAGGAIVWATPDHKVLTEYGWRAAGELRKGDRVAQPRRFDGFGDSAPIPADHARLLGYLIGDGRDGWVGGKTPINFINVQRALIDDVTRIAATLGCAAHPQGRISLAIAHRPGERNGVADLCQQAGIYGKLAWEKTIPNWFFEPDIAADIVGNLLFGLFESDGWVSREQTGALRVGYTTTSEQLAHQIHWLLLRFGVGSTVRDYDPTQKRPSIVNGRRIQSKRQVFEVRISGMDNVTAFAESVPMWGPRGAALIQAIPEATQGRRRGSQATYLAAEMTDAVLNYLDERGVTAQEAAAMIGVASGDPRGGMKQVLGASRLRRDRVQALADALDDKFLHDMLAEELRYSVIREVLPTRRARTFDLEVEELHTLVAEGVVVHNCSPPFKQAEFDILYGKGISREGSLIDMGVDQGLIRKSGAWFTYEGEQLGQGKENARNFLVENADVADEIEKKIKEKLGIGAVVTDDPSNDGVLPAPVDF

Prothrombin = Prothrombin (Homo sapiens, UniProt P00734); assay: Thrombin 1536 HTS Dose Response Confirmation. [Related pubchem assays: 1046 (Thrombin 1536 HTS; hits were confirmed in this assay)]; format: functional
[3] = target: T4, Sphingosine 1-phosphate receptor 4 (Homo sapiens, UniProt O95977); assay: Fluorescence dose response cell-based high throughput screening assay for antagonists of the Sphingosine 1-Phosphate Receptor 4 (S1P4). [Related pubchem assays: 1524 (Confirmation in triplicates.), 1510 (Primary screen.)]; format: functional
T4 sequence (O95977 whole entry): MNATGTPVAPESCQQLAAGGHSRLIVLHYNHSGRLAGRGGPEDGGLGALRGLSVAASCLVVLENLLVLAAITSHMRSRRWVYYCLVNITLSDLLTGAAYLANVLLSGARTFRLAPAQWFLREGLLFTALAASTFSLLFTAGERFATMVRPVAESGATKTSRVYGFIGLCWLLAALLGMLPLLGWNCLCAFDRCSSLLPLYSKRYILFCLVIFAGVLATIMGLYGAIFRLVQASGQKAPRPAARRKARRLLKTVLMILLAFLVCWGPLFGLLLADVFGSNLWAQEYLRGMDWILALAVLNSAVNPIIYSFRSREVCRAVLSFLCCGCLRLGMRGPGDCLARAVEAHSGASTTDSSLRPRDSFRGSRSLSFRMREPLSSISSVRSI

[4] = Luminescent dose response cell-based high throughput screening assay for inhibitors of the Janus kinase 2 mutant JAK2V617F. [Related pubchem assays: 1446 (Primary screen.), 1521 (Confirmation assay.), 1486 (Counter screen.)]; format: functional
[5] = target: T5, Replicative DNA helicase DnaB (Mycobacterium tuberculosis, UniProt P9WMR3); assay: DnaB intein splicing inhibitors, dose response, biochemical, cell-free fluorescence (AID 449749); format: functional
T5 sequence (P9WMR3 whole entry): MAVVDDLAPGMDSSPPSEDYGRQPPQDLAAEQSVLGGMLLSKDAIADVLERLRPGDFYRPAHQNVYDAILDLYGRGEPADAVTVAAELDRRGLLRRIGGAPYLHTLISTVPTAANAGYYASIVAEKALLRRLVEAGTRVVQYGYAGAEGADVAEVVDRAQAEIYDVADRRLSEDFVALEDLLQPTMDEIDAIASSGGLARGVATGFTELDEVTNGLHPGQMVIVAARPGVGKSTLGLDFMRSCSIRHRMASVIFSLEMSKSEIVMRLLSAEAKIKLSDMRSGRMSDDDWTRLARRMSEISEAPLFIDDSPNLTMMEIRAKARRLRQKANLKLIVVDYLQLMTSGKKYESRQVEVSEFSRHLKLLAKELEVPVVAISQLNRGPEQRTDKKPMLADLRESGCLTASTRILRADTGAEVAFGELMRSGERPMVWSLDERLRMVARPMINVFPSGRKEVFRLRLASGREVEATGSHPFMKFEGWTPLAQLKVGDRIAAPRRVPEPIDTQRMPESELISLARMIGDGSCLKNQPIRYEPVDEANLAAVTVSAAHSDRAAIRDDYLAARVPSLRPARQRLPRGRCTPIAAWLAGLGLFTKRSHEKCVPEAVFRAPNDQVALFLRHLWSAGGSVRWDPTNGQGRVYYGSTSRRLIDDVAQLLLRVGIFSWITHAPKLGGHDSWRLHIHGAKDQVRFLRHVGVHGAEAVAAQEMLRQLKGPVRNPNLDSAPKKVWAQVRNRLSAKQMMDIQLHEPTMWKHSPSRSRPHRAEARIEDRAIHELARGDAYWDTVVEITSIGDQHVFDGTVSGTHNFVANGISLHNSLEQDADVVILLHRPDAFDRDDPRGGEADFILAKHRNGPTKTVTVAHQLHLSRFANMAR

[6] = target: Sphingosine 1-phosphate receptor 1 (Homo sapiens, UniProt P21453); format: functional;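 also: Tango beta-arrestin reporter U2OS cells stimulated with S1P near its EC80; inhibitor potency meaning antagonism of receptor activation by the natural agonist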
Sphingosine 1-phosphate receptor 1, sequence (P21453 whole entry, the tested form may be a part): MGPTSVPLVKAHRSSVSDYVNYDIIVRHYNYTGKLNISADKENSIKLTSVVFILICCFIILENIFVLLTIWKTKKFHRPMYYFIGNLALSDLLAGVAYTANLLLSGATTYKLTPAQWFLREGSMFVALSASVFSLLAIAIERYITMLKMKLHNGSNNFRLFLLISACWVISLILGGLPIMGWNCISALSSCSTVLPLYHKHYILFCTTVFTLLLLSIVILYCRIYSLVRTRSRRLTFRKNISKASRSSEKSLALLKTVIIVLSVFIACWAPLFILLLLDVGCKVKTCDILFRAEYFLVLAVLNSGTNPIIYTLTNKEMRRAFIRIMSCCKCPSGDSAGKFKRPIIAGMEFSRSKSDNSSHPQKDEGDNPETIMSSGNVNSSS

Estrogen receptor = target: T6, Estrogen receptor (Homo sapiens, UniProt P03372); assay: ERα coactivator recruitment enhancers – biochemical, TR-FRET, ERα LBD, dose response (AID 737)
T6 sequence (P03372 whole entry): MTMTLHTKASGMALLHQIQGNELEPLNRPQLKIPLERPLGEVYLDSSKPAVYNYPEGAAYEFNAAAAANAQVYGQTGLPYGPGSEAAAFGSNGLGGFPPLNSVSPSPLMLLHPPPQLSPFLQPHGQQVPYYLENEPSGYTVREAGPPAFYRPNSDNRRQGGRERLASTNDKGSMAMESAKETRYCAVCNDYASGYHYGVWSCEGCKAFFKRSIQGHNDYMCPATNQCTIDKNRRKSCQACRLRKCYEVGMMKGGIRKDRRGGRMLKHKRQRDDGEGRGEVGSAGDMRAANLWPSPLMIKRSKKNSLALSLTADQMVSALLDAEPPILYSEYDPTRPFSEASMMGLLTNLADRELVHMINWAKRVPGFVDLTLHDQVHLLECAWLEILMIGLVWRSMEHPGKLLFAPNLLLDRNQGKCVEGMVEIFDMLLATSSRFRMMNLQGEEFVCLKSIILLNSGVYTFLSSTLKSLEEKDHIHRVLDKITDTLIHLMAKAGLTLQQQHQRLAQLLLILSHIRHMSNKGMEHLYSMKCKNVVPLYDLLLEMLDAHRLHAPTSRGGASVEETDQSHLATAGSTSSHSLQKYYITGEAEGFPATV

[7] = target: T7, Polyadenylate-binding protein 1 (Homo sapiens, UniProt P11940); assay: MLLE domain peptide-binding blockers, IC50 – biochemical, fluorescence polarization, FITC-PAM2 peptide, dose response (AID 602259); format: functional; details: read-out: IC50_Mean
T7 sequence (P11940 whole entry, the tested form may be a part): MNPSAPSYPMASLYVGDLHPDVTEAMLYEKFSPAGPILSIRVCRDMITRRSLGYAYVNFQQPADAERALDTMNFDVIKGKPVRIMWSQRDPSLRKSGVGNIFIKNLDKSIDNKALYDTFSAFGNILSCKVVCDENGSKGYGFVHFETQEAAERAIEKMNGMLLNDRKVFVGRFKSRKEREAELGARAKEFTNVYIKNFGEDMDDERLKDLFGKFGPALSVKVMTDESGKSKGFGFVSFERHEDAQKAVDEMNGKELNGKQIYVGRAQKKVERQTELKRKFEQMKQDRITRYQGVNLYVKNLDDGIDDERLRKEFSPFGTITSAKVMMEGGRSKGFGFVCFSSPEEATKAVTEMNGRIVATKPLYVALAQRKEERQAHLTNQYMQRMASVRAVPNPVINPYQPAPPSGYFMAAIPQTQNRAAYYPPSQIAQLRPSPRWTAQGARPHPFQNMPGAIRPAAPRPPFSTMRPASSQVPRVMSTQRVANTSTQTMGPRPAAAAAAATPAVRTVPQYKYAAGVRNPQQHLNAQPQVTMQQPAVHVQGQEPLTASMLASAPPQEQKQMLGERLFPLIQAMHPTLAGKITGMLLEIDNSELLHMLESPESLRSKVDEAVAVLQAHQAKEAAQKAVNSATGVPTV

[8] = HIV-1 Vif–A3G interaction blockers – biochemical, TR-FRET, GST-Vif 1-94, biotin-A3G peptide, dose response retest, primary screen (AID 1117319); format: functional;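 also: TR-FRET signal of purified GST-Vif binding a biotinylated A3G peptide; inhibitors lower the FRET signal by blocking Vif and A3G binding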
[9] = target: T7, Polyadenylate-binding protein 1; assay: MLLE binding blockers, Cy5 peptide tracer – biochemical, fluorescence polarization, Cy5-PAM2 peptide, secondary, miRNA deadenylation inhibitor project, dose response (AID 602260); format: functional; details: read-out: IC50_Mean
[10] = viability loss in THP-1 monocytes – THP-1 cells, cytotoxicity control for Vif-APOBEC3G degradation inhibitor project, dose response (AID 1117359); format: functional; details: THP-1

O=C(N/C(=C/c1ccc(Br)cc1)c1nc2ccccc2[nH]1)c1ccco1
IC50 [1]: 111 µM (not active) | IC50 [2]: 20 µM (not active)

COc1cc(NC(=O)CSc2nc3cc(C)ccc3cc2C)c(C(=O)O)cc1OC
IC50 (Procathepsin L): > 59.6 µM (not active) | IC50 (Aspartyl aminopeptidase): > 73.5 µM (not active) | IC50 (Leucine aminopeptidase): 1.93 µM (active)

CCC(C)[C@@H](NC(=O)OC(C)(C)C)c1nnc(S(=O)(=O)Cc2cccc(C)c2)o1 (some centres not stated)
EC50 (Protein RecA): 2.5 µM (active) | IC50 (Prothrombin): 3.23 µM (active) | IC50 [3]: 2.61 µM (active) | IC50 [4]: 0.826 µM (active) | AC50 [5]: 2.31 µM (active) | IC50 [6]: > 49.8 µM (not active)

CCOC(=O)c1c(C)[nH]c(C)c1C(=O)CSc1nnc(-c2cc(OC)c(OC)c(OC)c2)o1
EC50 (Estrogen receptor): 12.5 µM (active)

COc1cccc(-c2cc(C(=O)Nc3cc(C)nn3-c3ccccc3)no2)c1
EC50 (Estrogen receptor): 12 µM (active)

COc1cc(NC(=O)COC(=O)/C=C/c2ccc(Cl)cc2Cl)cc(OC)c1
IC50 [1]: > 111 µM (not active) | IC50 [2]: 16.1 µM (not active)

Cc1c(O)n(-c2ccc(F)cc2)c(SCC(=O)Nc2ccc3c4c(cccc24)CC3)nc1=O
IC50 [7]: > 66 µM (inactive) | IC50 [8]: > 100 µM (active) | IC50 (Procathepsin L): > 59.6 µM (not active) | IC50 [9]: > 66 µM (inactive) | IC50 (Aspartyl aminopeptidase): > 73.5 µM (not active) | CC50 [10]: > 40 µM (active) | IC50 (Leucine aminopeptidase): 6.36 µM (active)
